Tests used:
Assay in all cases: Kinase Profiling (KINOMEscan)
Assay type in all cases: binding
[1] = target: 456 kinases (of these 395 non-mutant kinases) (Homo sapiens, UniProt O00506); conditions: YSK1; 10 μM
[2] = target: 456 kinases (of these 395 non-mutant kinases) (Homo sapiens, UniProt O14976); conditions: GAK; 10 μM
[3] = target: 456 kinases (of these 395 non-mutant kinases) (Homo sapiens, UniProt O43283); conditions: LZK; 10 μM
[4] = target: 456 kinases (of these 395 non-mutant kinases) (Homo sapiens, UniProt O75716); conditions: STK16; 10 μM
456 kinases (of these 395 non-mutant kinases) (Homo sapiens, UniProt O75716), sequence (O75716 2-305 limits assumed, change not shown): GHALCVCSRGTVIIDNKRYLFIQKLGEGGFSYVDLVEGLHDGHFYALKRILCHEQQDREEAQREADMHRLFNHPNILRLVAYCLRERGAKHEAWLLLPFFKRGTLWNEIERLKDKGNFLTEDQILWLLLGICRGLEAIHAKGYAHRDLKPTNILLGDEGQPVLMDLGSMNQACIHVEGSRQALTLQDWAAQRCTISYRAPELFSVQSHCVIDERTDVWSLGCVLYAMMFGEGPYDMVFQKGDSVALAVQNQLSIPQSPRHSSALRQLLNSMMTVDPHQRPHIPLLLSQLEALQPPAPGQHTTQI

[5] = target: 456 kinases (of these 395 non-mutant kinases) (Homo sapiens, UniProt O75747); conditions: PIK3C2G; 10 μM
[6] = target: 456 kinases (of these 395 non-mutant kinases) (Homo sapiens, UniProt O76039); conditions: CDKL5; 10 μM
[7] = target: 456 kinases (of these 395 non-mutant kinases) (Homo sapiens, UniProt O94806); conditions: PRKD3; 10 μM
[8] = target: 456 kinases (of these 395 non-mutant kinases) (Homo sapiens, UniProt P00533, DEL752-759); conditions: EGFR(S752-I759del); 10 μM
[9] = target: 456 kinases (of these 395 non-mutant kinases) (Homo sapiens, UniProt P09619); conditions: PDGFRB; 10 μM
456 kinases (of these 395 non-mutant kinases) (Homo sapiens, UniProt P09619), sequence (P09619 33-1106 limits assumed, change not shown): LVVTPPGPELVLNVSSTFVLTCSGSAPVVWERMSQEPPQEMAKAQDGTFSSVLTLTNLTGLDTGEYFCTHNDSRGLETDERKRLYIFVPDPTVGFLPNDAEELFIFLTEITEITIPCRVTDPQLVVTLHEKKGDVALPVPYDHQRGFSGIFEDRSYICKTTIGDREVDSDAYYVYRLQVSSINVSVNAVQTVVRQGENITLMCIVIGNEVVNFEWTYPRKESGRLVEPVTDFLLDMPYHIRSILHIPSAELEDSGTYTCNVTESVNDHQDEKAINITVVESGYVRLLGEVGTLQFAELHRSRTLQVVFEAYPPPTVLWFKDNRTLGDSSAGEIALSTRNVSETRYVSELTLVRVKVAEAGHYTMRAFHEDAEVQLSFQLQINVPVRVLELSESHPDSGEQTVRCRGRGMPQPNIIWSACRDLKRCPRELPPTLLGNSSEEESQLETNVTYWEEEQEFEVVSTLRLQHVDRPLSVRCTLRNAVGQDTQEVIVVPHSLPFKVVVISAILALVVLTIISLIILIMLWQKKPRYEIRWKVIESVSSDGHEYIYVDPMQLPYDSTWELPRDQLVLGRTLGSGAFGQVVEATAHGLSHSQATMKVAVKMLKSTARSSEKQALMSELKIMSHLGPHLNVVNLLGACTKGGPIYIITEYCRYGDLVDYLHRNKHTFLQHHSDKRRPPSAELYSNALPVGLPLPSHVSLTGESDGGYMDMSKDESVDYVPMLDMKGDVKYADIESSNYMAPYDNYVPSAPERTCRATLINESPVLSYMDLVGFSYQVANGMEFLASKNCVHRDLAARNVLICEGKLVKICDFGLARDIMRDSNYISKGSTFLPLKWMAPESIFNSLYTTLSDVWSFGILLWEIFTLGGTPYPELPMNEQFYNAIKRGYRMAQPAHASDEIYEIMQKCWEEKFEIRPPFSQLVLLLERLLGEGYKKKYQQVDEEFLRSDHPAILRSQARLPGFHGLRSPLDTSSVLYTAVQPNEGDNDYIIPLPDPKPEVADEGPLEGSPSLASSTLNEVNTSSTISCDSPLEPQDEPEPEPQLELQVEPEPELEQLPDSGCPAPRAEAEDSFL

[10] = target: 456 kinases (of these 395 non-mutant kinases) (Homo sapiens, UniProt P21127); conditions: CDC2L1; 10 μM
[11] = target: 456 kinases (of these 395 non-mutant kinases) (Homo sapiens, UniProt P29320); conditions: EPHA3; 10 μM
[12] = target: 456 kinases (of these 395 non-mutant kinases) (Homo sapiens, UniProt P36507); conditions: MEK2; 10 μM
[13] = target: 456 kinases (of these 395 non-mutant kinases) (Homo sapiens, UniProt P42336, I800L); conditions: PIK3CA(I800L); 10 μM
[14] = target: 456 kinases (of these 395 non-mutant kinases) (Homo sapiens, UniProt P49674); conditions: CSNK1E; 10 μM
[15] = target: 456 kinases (of these 395 non-mutant kinases) (Homo sapiens, UniProt P51812); conditions: 10 μM
[16] = target: 456 kinases (of these 395 non-mutant kinases) (Homo sapiens, UniProt P78362); conditions: SRPK2; 10 μM
[17] = target: 456 kinases (of these 395 non-mutant kinases) (Homo sapiens, UniProt Q04912); conditions: MST1R; 10 μM
[18] = target: 456 kinases (of these 395 non-mutant kinases) (Homo sapiens, UniProt Q13043); conditions: MST1; 10 μM
[19] = target: 456 kinases (of these 395 non-mutant kinases) (Homo sapiens, UniProt Q13131); conditions: AMPK-alpha1; 10 μM
[20] = target: 456 kinases (of these 395 non-mutant kinases) (Homo sapiens, UniProt Q13470); conditions: TNK1; 10 μM
[21] = target: 456 kinases (of these 395 non-mutant kinases) (Homo sapiens, UniProt Q13554); conditions: CAMK2B; 10 μM
[22] = target: 456 kinases (of these 395 non-mutant kinases) (Homo sapiens, UniProt Q15208); conditions: NDR1; 10 μM
456 kinases (of these 395 non-mutant kinases) (Homo sapiens, UniProt Q15208), sequence (Q15208 2-465 limits assumed, change not shown): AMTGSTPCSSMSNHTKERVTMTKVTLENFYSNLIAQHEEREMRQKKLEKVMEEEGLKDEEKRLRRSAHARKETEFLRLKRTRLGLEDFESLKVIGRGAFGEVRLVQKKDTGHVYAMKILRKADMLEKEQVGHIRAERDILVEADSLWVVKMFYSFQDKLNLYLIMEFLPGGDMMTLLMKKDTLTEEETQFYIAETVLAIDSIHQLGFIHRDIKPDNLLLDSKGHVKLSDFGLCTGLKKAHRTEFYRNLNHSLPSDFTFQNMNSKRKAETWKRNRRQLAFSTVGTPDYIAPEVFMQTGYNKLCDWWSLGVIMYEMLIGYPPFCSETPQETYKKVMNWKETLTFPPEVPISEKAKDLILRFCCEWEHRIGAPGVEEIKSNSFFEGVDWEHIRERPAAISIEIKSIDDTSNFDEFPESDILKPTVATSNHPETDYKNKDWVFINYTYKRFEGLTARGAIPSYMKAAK

[23] = target: 456 kinases (of these 395 non-mutant kinases) (Homo sapiens, UniProt Q5VT25); conditions: MRCKA; 10 μM
[24] = target: 456 kinases (of these 395 non-mutant kinases) (Homo sapiens, UniProt Q86Z02); conditions: HIPK1; 10 μM
[25] = target: 456 kinases (of these 395 non-mutant kinases) (Homo sapiens, UniProt Q8TD08); conditions: ERK8; 10 μM
[26] = target: 456 kinases (of these 395 non-mutant kinases) (Homo sapiens, UniProt Q99755); conditions: PIP5K1A; 10 μM
[27] = target: 456 kinases (of these 395 non-mutant kinases) (Homo sapiens, UniProt Q9BUB5); conditions: MKNK1; 10 μM
[28] = target: 456 kinases (of these 395 non-mutant kinases) (Homo sapiens, UniProt Q9BX84); conditions: TRPM6; 10 μM
[29] = target: 456 kinases (of these 395 non-mutant kinases) (Homo sapiens, UniProt Q9NRP7); conditions: STK36; 10 μM
[30] = target: 456 kinases (of these 395 non-mutant kinases) (Homo sapiens, UniProt Q9UEW8); conditions: STK39; 10 μM
[31] = target: 456 kinases (of these 395 non-mutant kinases) (Homo sapiens, UniProt Q9UM73, L1196M); conditions: ALK(L1196M); 10 μM
456 kinases (of these 395 non-mutant kinases) (Homo sapiens, UniProt Q9UM73, L1196M), sequence (Q9UM73 19-1620 L1196M limits assumed): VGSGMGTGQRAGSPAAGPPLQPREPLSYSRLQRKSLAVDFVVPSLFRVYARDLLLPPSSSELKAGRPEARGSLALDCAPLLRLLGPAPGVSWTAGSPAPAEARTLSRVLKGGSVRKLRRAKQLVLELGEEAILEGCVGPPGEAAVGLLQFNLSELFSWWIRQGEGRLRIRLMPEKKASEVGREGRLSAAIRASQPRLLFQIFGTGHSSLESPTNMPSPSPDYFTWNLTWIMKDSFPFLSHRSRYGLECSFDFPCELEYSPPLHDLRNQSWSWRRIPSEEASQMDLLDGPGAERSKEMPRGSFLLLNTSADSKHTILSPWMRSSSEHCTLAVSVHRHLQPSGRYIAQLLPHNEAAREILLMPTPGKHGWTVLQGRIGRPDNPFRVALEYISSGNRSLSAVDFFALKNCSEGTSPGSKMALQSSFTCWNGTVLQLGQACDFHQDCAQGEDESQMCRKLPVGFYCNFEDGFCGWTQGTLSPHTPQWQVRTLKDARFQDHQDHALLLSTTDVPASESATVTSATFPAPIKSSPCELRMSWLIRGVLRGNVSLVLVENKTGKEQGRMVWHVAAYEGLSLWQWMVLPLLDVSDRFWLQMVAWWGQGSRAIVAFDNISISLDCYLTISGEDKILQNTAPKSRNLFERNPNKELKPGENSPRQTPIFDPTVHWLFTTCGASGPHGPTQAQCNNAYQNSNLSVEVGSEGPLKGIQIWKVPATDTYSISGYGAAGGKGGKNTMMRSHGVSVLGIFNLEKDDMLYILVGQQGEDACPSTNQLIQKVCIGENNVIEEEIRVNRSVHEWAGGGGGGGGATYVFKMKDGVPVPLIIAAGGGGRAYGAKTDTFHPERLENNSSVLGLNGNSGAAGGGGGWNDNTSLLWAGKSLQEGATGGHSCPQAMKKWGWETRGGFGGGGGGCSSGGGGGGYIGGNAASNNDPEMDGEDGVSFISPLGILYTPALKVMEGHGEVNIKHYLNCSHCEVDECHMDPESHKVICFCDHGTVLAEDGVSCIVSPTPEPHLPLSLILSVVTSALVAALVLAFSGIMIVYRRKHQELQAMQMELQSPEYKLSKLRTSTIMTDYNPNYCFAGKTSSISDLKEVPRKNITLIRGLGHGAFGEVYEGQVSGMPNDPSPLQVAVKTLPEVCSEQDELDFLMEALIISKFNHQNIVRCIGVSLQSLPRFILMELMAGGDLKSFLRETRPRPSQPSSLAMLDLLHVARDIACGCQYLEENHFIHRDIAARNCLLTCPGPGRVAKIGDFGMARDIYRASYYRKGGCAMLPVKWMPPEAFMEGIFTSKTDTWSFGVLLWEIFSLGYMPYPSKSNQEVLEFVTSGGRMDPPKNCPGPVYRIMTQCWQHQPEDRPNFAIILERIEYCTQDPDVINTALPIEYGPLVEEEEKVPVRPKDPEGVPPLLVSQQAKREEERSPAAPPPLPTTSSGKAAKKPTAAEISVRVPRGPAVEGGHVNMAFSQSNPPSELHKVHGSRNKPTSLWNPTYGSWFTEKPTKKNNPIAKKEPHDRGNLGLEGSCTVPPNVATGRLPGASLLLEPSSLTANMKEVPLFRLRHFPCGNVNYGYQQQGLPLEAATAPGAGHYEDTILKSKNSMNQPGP

[32] = target: 456 kinases (of these 395 non-mutant kinases) (Homo sapiens, UniProt Q9Y6R4); conditions: MAP3K4; 10 μM

456 kinases (of these 395 non-mutant kinases) (Homo sapiens, UniProt O14976), sequence (O14976 2-1311 limits assumed, change not shown): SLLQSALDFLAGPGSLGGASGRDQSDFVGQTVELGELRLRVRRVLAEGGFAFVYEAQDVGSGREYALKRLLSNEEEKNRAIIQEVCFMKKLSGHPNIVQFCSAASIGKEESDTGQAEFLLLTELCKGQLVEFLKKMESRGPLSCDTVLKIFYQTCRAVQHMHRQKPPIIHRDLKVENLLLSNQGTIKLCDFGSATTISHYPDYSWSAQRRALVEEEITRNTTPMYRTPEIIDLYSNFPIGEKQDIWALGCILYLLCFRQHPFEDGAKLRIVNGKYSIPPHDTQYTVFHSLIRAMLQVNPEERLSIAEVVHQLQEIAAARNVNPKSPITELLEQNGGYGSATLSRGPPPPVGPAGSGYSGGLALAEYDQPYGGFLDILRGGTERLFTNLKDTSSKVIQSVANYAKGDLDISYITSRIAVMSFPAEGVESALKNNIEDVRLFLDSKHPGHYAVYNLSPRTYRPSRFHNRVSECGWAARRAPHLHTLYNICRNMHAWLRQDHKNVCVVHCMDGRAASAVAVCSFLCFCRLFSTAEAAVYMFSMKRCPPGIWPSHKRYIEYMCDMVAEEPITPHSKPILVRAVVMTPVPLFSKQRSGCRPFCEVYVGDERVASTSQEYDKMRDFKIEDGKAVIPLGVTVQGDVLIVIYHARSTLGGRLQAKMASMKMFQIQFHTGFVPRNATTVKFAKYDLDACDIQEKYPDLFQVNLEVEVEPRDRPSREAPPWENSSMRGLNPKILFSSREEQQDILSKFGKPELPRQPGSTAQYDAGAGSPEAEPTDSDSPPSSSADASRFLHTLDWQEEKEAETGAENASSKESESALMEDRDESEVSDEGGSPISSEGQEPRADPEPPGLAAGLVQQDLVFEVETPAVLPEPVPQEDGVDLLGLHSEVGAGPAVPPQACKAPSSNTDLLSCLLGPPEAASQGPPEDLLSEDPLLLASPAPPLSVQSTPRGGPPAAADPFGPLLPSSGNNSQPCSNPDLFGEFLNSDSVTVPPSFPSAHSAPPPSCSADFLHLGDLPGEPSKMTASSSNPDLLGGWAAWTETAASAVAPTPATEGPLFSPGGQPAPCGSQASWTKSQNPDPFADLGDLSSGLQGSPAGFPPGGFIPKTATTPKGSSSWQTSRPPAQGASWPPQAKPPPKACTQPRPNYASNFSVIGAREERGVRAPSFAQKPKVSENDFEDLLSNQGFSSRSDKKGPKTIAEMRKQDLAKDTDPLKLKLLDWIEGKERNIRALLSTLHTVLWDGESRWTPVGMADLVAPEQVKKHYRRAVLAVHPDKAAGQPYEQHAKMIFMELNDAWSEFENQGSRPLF

CCc1ccccc1NC(=O)c1c(C)nsc1Nc1cnc2cc(F)ccc2n1 [Example 20, N-(2-Ethylphenyl)-5-[(6-fluoroquinoxalin-2-yl)amino]-3-methyl-1,2-thiazole-4-carboxamide]
% Ctrl @ 10 μM [1]: 100 % Ctrl | % Ctrl @ 10 μM [2]: 96 % Ctrl | % Ctrl @ 10 μM [3]: 88 % Ctrl | % Ctrl @ 10 μM [4]: 100 % Ctrl | % Ctrl @ 10 μM [5]: 86 % Ctrl | % Ctrl @ 10 μM [6]: 100 % Ctrl | % Ctrl @ 10 μM [7]: 97 % Ctrl | % Ctrl @ 10 μM [8]: 100 % Ctrl | % Ctrl @ 10 μM [9]: 89 % Ctrl | % Ctrl @ 10 μM [10]: 92 % Ctrl | % Ctrl @ 10 μM [11]: 95 % Ctrl | % Ctrl @ 10 μM [12]: 100 % Ctrl | % Ctrl @ 10 μM [13]: 93 % Ctrl | % Ctrl @ 10 μM [14]: 74 % Ctrl | % Ctrl @ 10 μM ([15]; RSK2(Kin.Dom.1-N-terminal)): 100 % Ctrl | % Ctrl @ 10 μM ([15]; RSK2(Kin.Dom.2-C-terminal)): 100 % Ctrl | % Ctrl @ 10 μM [16]: 100 % Ctrl | % Ctrl @ 10 μM [17]: 100 % Ctrl | % Ctrl @ 10 μM [18]: 79 % Ctrl | % Ctrl @ 10 μM [19]: 92 % Ctrl | % Ctrl @ 10 μM [20]: 86 % Ctrl | % Ctrl @ 10 μM [21]: 82 % Ctrl | % Ctrl @ 10 μM [22]: 100 % Ctrl | % Ctrl @ 10 μM [23]: 92 % Ctrl | % Ctrl @ 10 μM [24]: 100 % Ctrl | % Ctrl @ 10 μM [25]: 82 % Ctrl | % Ctrl @ 10 μM [26]: 100 % Ctrl | % Ctrl @ 10 μM [27]: 100 % Ctrl | % Ctrl @ 10 μM [28]: 83 % Ctrl | % Ctrl @ 10 μM [29]: 75 % Ctrl | % Ctrl @ 10 μM [30]: 100 % Ctrl | % Ctrl @ 10 μM [31]: 100 % Ctrl | % Ctrl @ 10 μM [32]: 84 % Ctrl

Reference: patent US9682995B2, “Amino-substituted isothiazoles” (BAYER PHARMA AKTIENGESELLSCHAFT, priority 2013, dated 2017)
